The test deals with eNOS promoter. The test is described as follows: Activation of eNOS transcription (eNOS promoter-luciferase reporter gene assay). It is filed as cell-based. The settings on record: human endothelial cell line stably transfected with eNOS promoter-luciferase construct; 18 h incubation; determined graphically; read-out: EC50 values of transcription induction ratios (TIR). As to the method: Determination of the Biological Activity A) Activation of eNOS Transcription
Activation of eNOS transcription was measured as described in detail by Li et al., “Activation of protein kinase C alpha and/or epsilon enhances transcription of the human endothelial nitric oxide synthase gene”, Mol. Pharmacol. 53 (1998) 630. Briefly, a 3.5 kB long fragment 5′ of the starting codon of the eNOS gene was cloned, sequenced and cloned in firefly luciferase expression plasmids to monitor activation of the eNOS promoter by reporter gene activity. A human endothelial cell line stable transfected and expressing this promoter-reporter construct was used for compound testing. Cells were incubated for 18 h with the compounds.
All compounds were dissolved in sterile dimethyl sulfoxide (DMSO). A final concentration of 0.5% DMSO in complete medium was allowed. Induction of reporter gene expression in these cells was measured using a standard luciferase assay system (Promega, Cat. No. E150) according to the manufacturer's instructions. Luciferase induction in cells incubated with compounds were compared to those incubated with solvent alone. The ratio of both activities (transcription induction ratio, TIR) was plotted as a function of compound concentration. Typically, TIR values started at low concentrations at a ratio of 1, indicating no compound effect, and extended up to a maximum TIR value TIR(max) which indicates the increase of the eNOS transcription. EC50 values of transcription induction ratios as a function of compound concentration were determined graphically.

Structures can show the parent of a compound that is named as a salt. Some results are limits rather than exact numbers.

For the compound `O=C(COc1ccc(-c2ccccc2F)nc1)Nc1ccccn1` [Example 77, 2-[6-(2-Fluoro-phenyl)-pyridin-3-yloxy]-N-(pyridin-2-yl) -acetamide trifluoroacetic acid salt], the EC50 is less than 500 nM.

On to `O=C(CNc1ccc(-c2ccccc2F)nc1)N1CCCCC1` [Example 89, 2-[6-(2-Fluoro-phenyl)-pyridin-3-ylamino]-1-(piperidin-1-yl)-ethanone trifluoroacetic acid salt], for which the EC50 lay in the range of 500 to 5000 nM. The result for `O=C(CCc1ccc(-c2ccc(OC(F)(F)F)cc2)s1)NCC(F)(F)F` [Example 8, N-(2,2,2-Trifluoro-ethyl)-3-[5-(4-trifluoromethoxy-phenyl) -thiophen-2-yl]-propionamide] reads 500 to 5000 nM; that for `CC(C)(C)NC(=O)CSc1nc(-c2ccc(F)cc2)cs1` [Example 100, N-tert-Butyl-2-[4-(4-Fluoro-phenyl)-thiazol-2-ylsulfanyl]-acetamide], 500 to 5000 nM.

With `Nc1nc(CCC(=O)N2CCCCC2)ccc1-c1ccccc1` [Example 79, 3-(6-Amino-5-phenyl-pyridin-2-yl)-1-(piperidin-1-yl) -propanone], the EC50 is less than 500 nM. In the case of `O=C(CCc1ccc(-c2ccc(OC(F)(F)F)cc2)s1)Nc1ccccc1` [Example 10, N-Phenyl-3-[5-(4-trifluoromethoxy-phenyl)-thiophen-2-yl]-propionamide] it was 500 to 5000 nM; in that of `O=C(CNc1nc(-c2ccc(F)cc2)cs1)N1CCCC1` [Example 69, 2-[4-(4-Fluoro-phenyl)-thiazol-2-ylamino]-1-(pyrrolidin-1-yl)-ethanone trifluoroacetic acid salt], less than 500 nM; in that of `O=C(CCc1ccc(-c2ccc(OC(F)(F)F)cc2)s1)NCC1CC1` [Example 7, N-Cyclopropylmethyl-3-[5-(4-trifluoromethoxy-phenyl)-thiophen-2-yl]-propionamide], less than 500 nM.

Turning to `O=C(CSc1nc(-c2ccc(F)cc2)cs1)N1CCCC1` [Example 98, 2-[4-(4-Fluoro-phenyl)-thiazol-2-ylsulfanyl]-1-(pyrrolidin-1-yl)-ethanone], the EC50 lay within 500 to 5000 nM. In the case of `O=C(CNc1nc(-c2ccc(F)cc2)cs1)N1CCCCC1` [Example 67, 2-[4-(4-Fluoro-phenyl)-thiazol-2-ylamino]-1-(piperidin-1-yl)-ethanone trifluoroacetic acid salt] it was 500 to 5000 nM; in that of `O=C(COc1ccc(-c2ccccc2F)nc1)Nc1nccs1` [Example 78, 2-[6-(2-Fluoro-phenyl)-pyridin-3-yloxy]-N-(thiazol-2-yl) -acetamide trifluoroacetic acid salt], less than 500 nM; in that of `CC(=O)N1CCN(C(=O)CCc2ccc(-c3ccccc3F)s2)CC1` [Example 20, 1-(4-Acetyl-piperazin-1-yl)-3-[5-(2-fluoro-phenyl) -thiophen-2-yl]-propan-1-one], 500 to 5000 nM.

These data come from patent US8188291B2, “Heteroaryl-substituted carboxamides and their use as pharmaceuticals” (Sanofi-Aventis, priority 2006, dated 2012).
